{"source": "patent US5494907A", "about": "“11-β substituted-19-nor steroids” (Roussel UCLAF, priority 1993, dated 1996)", "key": {"[1]": {"molecular_target": "T1, hGR (recombinant human glucocorticoid receptor) (Homo sapiens, UniProt P04150)", "T1 construct": "made in house; host or cells: SF9 insect cells, recombinant baculovirus", "T1 sequence (P04150 1-777)": "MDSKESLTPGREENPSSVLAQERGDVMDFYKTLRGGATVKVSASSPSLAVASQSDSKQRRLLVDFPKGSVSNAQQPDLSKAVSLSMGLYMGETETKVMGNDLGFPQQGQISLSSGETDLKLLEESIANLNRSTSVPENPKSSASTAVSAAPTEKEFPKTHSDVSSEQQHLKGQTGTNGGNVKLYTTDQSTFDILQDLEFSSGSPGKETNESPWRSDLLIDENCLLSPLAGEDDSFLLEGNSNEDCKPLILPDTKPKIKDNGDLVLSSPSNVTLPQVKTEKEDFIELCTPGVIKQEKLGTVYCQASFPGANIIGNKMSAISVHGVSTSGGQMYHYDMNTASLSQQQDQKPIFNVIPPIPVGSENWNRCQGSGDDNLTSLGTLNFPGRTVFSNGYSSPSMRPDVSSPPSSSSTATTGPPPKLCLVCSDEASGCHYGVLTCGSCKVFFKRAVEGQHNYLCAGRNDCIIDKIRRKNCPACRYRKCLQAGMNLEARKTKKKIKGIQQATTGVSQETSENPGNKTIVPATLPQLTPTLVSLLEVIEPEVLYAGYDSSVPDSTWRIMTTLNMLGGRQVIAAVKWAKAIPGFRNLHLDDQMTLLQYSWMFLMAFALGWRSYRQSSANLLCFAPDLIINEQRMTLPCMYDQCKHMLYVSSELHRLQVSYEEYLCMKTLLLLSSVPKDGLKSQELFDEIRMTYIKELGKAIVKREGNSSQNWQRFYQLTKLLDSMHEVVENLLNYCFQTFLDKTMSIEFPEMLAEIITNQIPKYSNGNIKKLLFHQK", "experiment": "Relative bond affinity (RBA) on recombinant human glucocorticoid receptor, displacement of tritiated 6,21-dimethyl-Δ1,4,6-pregnatrien-11β,17β-diol-20-yn-3-one", "assay_type": "binding", "settings": "for RBA hGR: Dexamethasone = 100, 0° C., 24 hours; for affinity for the glucocorticoid receptor (in words): conclusion in words", "from_the_text": "(§1) 1--Activity on the hormonal receptors using either the natural hormonal receptor of a rat (AR), or the recombinant human receptor (PR, GR and ER).\nHuman glucocorticoid receptor\nA supernatant of SF9 cells containing the recombinant human glucocorticoid receptor was obtained by the process described above for the progesterone receptor using the cDNA fragment described HOLLENBERG et al. (Nature (1985), Vol. 318 No. 19/26, p. 635) containing the region coding for the human glucocorticoid receptor. The cells were lysed in a lysis buffer (2). The supernatant was incubated at 0° C. for 24 hours with a constant concentration (T) of 6,21-dimethyl-Δ1,4,6-pregnatrien-11β,17β-diol-20-yn-3-one tritiated in the presence of increasing concentrations either of unlabelled dexamethasone (0-1000×10^-9 M), or of the unlabelled product under test (1 to 25000×10^-9 M). The concentration of bound tritiated 6,21-dimethyl-Δ1,4,6-pregnatrien-11β,17β-diol-20-yn-3-one (B) was then measured in each incubate by the technique of adsorption with carbon dextran.\n(§2) Calculation of the relative bond affinity (RBA).\n(§3) The following 2 curves were traced: percentage of bound tritiated hormone B/BO as a function of the logarithm of the concentration of unlabelled reference hormone or as a function of the logarithm of the concentration of the unlabelled product under test.\n(§4) The straight line of the following equation was determined:\n(§5) BO=Concentration of bound tritiated hormone in the absence of any unlabelled product,\n(§6) B=Concentration of bound tritiated hormone in the presence of a concentration X of unlabelled product,\n(§7) B min=Concentration of bound tritiated hormone in the presence of a large excess of cold reference hormone (500 nM). The intersections of the straight line I50 and the curves allowed the evaluation of the concentrations of unlabelled reference hormone (CH) and of the unlabelled product under test (CX) which inhibited by 50% the specific binding of the tritiated hormone on the receptor.\nThe relative bond affinity (RBA) of the product under test was determined by the equation:\nThe RBA's of the reference products estradiol, progesterone, dexamethasone and testosterone were arbitrarily taken to be equal to 100."}, "[2]": {"molecular_target": "T2, AR (androgen receptor of the prostate of a rat) (Rattus norvegicus, UniProt P15207)", "T2 construct": "using either the natural hormonal receptor of a rat (AR); from tissue; host or cells: prostate of castrated male Sprague Dawley rats, high-speed supernatant", "T2 sequence (P15207 1-902)": "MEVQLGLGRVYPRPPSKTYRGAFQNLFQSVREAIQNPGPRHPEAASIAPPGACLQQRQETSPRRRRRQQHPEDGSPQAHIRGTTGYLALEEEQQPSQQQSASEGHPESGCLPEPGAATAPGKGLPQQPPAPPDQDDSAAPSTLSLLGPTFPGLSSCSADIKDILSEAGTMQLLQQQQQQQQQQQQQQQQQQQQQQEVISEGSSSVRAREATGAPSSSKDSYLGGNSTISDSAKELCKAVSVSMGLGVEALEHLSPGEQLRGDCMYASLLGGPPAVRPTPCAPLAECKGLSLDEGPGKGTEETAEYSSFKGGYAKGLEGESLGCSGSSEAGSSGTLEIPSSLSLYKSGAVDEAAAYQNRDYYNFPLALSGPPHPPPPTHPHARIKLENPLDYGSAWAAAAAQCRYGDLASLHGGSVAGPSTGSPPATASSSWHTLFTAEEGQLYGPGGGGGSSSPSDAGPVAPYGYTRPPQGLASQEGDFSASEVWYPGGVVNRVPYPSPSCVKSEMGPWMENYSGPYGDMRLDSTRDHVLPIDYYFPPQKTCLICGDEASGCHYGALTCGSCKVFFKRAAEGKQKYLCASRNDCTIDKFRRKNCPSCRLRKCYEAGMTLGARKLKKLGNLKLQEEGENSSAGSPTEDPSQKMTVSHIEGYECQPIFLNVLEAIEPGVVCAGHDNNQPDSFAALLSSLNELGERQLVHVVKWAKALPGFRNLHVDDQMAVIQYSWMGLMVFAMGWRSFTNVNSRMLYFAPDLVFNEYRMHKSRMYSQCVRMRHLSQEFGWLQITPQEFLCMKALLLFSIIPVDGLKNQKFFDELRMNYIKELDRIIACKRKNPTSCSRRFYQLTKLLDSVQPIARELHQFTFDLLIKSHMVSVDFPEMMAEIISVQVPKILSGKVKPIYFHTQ", "experiment": "Relative bond affinity (RBA) on androgen receptor of the prostate of a rat, displacement of tritiated testosterone", "assay_type": "binding", "settings": "Testosterone = 100; 0° C., 24 hours", "description": "as §1\nAndrogen receptor of the prostate of a rat\nMale Sprague Dawley EOPS rats weighing 180 to 200 g were castrated and 24 hours after the castration, the animals were sacrificed. The prostates were removed, weighed and homogenized at 0° C. using a Potter teflon-glass in a TS buffered solution (10 mM Tris, 0.25 M saccharose, 2 mMDTT, 20 mM MoNa, 0.1 mM PMSF, pH 7.4) (1 g of tissue per 8 ml of TS). The homogenate was centrifuged (209,000 g for 30 minutes) at 0° C. Aliquots of the supernatant were incubated at 0° C. for 24 hours with a constant concentration (T) of tritiated testosterone in the presence of increasing concentrations, either of unlabelled testosterone (0 to 1000×10^-9 M), or of the product under test (1 to 25000×10^-9 M). The concentration of bound tritiated testosterone (B) was measured in each incubate by the technique of adsorption with carbon dextran.\nas §2, §3, §4, §5, §6, §7\nThe relative bond affinity (RBA) of the product under test was determined by the equation: […]"}}}
{"compound": "CCCCNS(=O)(=O)CCCCCOc1ccc([C@H]2C[C@]3(C)[C@@H](O)CC[C@H]3[C@@H]3CCc4cc(O)ccc4[C@H]32)cc1", "note": "[Example 2, N-butyl-5-[4-(Δ1,3,5(10)-estratrien-3,17β-diol-11β-yl)phenoxy]-pentanesulfonamide]", "values": [{"measurement": "RBA hGR", "setting": "[1]", "value": 82}, {"measurement": "affinity for the glucocorticoid receptor (in words)", "setting": "[1]", "value": "marked affinity"}, {"measurement": "RBA AR", "setting": "[2]", "value": 3}]}
{"compound": "CCCCN(C)S(=O)(=O)CCCCCOc1ccc([C@H]2C[C@]3(C)[C@@H](O)CC[C@H]3[C@@H]3CCc4cc(O)ccc4[C@H]32)cc1", "note": "[Example 7, N-butyl-5-[4-(Δ1,3,5(10)-estratrien-3,17β-diol-11β-yl)phenoxy]-N-methyl-pentanesulfonamide]", "values": [{"measurement": "RBA hGR", "setting": "[1]", "value": 152}, {"measurement": "affinity for the glucocorticoid receptor (in words)", "setting": "[1]", "value": "marked affinity"}, {"measurement": "RBA AR", "setting": "[2]", "value": 2.5}]}
{"compound": "CN(CC(F)(F)C(F)(F)C(F)(F)F)S(=O)(=O)CCCCCOc1ccc([C@H]2C[C@]3(C)[C@@H](O)CC[C@H]3[C@@H]3CCc4cc(O)ccc4[C@H]32)cc1", "note": "[Example 8, 5-[4-(Δ1,3,5(10)-estratrien-3,17β-diol-11βyl)-Phenoxy]-N-(2,2,3,3,4,4,4-heptafluorobutyl)-N-methyl-pentanesulfonamide]", "values": [{"measurement": "RBA hGR", "setting": "[1]", "value": 114}, {"measurement": "affinity for the glucocorticoid receptor (in words)", "setting": "[1]", "value": "marked affinity"}, {"measurement": "RBA AR", "setting": "[2]", "value": 1.5}]}
